US4528189A, “Urotensin peptides” (The Salk Institute For Biological Studies, priority 1983, dated 1985)
Where two headings read alike, the source gives them in different places.

How the values were obtained:
[1] = system: ACTH and β-END-LI secretion; assay: secretion of ACTH and β-END-LI, general procedure (Examples V, VI); settings: general procedure of Example III as printed
Method: (§1) The urotensin peptides from Examples II and III are examined for effects on the secretion of ACTH and β-endorphin in vitro and also examined in vivo. […] UI activity of the peptides was measured by the isolated rat hind limb assay, Lederis, K. et al. "Effects and Assay of Urotensin I on the Perfused Hind Limb of the Rat", Gen. Comp. Endocrinol., 24:10-16, 1974. In vivo hypotensive activity of extracted peptides was measured in anaesthetized rats, Lederis, K. and Medakovic, M. "Pharmacological Observations on the Hypotensive Action of Extracts of Teleost Fish Urophyses (Urotensin I) in the Rat", Br. J. Pharmacol. 51:315-324, 1974, and in anaesthetized dogs, MacCannell and Lederis, "Dilatation of the Mesenteric Vascular Bed of the Dog Produced by a Peptide, Urotensin I", J. Pharm. Exp. Ther. 203:38-46, 1977.
(§2) The peptide having the formula: Ac-[…]NH2 is synthesized.

blood pressure [2] = assay: mammalian vasodilatory-hypotensive activity (mesenteric blood flow, systemic blood pressure), species not stated; assay type: in vivo
Method: as §1, §2
The peptide having the formula: H-Pro-Pro-Ile-Ser-Ile-Asp-Leu-Thr-Phe-His-Leu-Leu-Arg-Asn-Met-Ile-Glu-Met- Ala-Arg-Ile-Glu-Asn-Glu-Arg-NH2 is synthesized.

[3] = system: cultured rat pituitary cells; assay: secretion of ACTH and β-endorphin by cultured rat pituitary cells; assay type: cell-based; settings: for potency to stimulate the secretion of ACTH and β-endorphin: in vitro; for potency to stimulate ACTH and β-endorphin secretion compared with amunine (CRF): the two peptides substantially indistinguishable from each other
Method: as §1

[4] = system: ACTH and β-END-LI secretion; assay: ACTH and β-END-LI secretion in vivo in several rat preparations
Method: as §1

mesenteric vascular bed [5] = assay: blood pressure and mesenteric vasodilatation in the anaesthetized dog; assay type: in vivo; settings: for potency of synthetic peptide versus extracted and purified peptide: anaesthetized dog in vivo; for dilatation of other (non-mesenteric) vascular beds / depression of the blood pressure: dog; for depression of the blood pressure: appears due solely to dilatation of the mesenteric vascular bed; for accompanying change in blood pressure (decrease) / increase in mesenteric flow: pentobarbital-anaesthetized dog, doses of 0.1-0.5 μg
Method: as §1
(§3) In the pentobarbital-anaesthetized dog, the threshold dose of UI for mesenteric vasodilatation, when given close arterially into the cephalic mesenteric A, is between 0.001 and 0.01 μg for both sucker UI (1-41) and for the 4-41 fragment of sucker UI. Doses of 0.1-0.5 μg of both peptides produce a 50-150% increase in mesenteric flow; accompanying changes in blood pressure are very modest (about 10% decrease). […] Comp. Endocrinol. 45:446-452, 1981. Comparison of the two extracted and the two synthetic sucker peptides indicate that synthetic UI(1-41) have 111±16% activity and synthetic UI (4-41) have 123±14% activity, relative to the activity of the respective extracted sucker UI peptides.

mesenteric vascular bed [6] = assay: blood pressure and vascular dilatation in the monkey; assay type: in vivo; settings: for depression of the blood pressure: appears due solely to dilatation of the mesenteric vascular bed
Method: as §1

blood pressure [7] = assay: in vivo hypotensive activity in anaesthetized rats; settings: rat; vascular dilatation appears less selective
Method: (§4) UI activity in the fractions was measured by the isolated rat hind limb assay, Lederis, K. et al. "Effects and Assay of Urotensin I on the Perfused Hind Limb of the Rat." Gen Comp Endocrinol. 24:10-16, 1974. In vivo hypotensive activity of extracted peptides or those obtained by enzymatic cleavage was measured in anaesthetized rats, Lederis, K. et al. "Pharmacological Observations on the Hypotensive Action of Extracts of Teleost Fish Urophyses (Urotensin I) in the Rat", Br. J. Pharmac. 51:315-324, 1974.
as §1

teleost fish pituitaries = assay: secretion of ACTH by teleost fish pituitaries
Method: as §1

isolated rat hind limb = isolated rat hind limb assay
Method: as §4
as §1, with “1977. […]” for “1977.”

[8] = system: isolated mesenteric artery strips; assay: isolated mesenteric artery strips of the rat
Method: as §3

[9] = comparison of extracted and synthetic sucker peptides (activity relative to extracted peptide); settings: synthetic versus extracted peptide
Method: as §3

blood pressure [10] = settings: reported, Erspamer et al.; cited from earlier work
[11] = system: ACTH and β-endorphin secretion; settings: reported; cited from earlier work

Row | Molecule | vasodilatory-hypotensive activity (mesenteric blood flow, systemic blood pressure) (blood pressure [2]) | potency to stimulate the secretion of ACTH and β-endorphin [3] | potency to stimulate ACTH and β-endorphin secretion compared with amunine (CRF) [3] | stimulation of ACTH and β-END-LI secretion in vivo [4] | potency of synthetic peptide versus extracted and purified peptide (mesenteric vascular bed [5]) | dilatation of other (non-mesenteric) vascular beds (mesenteric vascular bed [5]) | depression of the blood pressure (mesenteric vascular bed [5]) | accompanying change in blood pressure (decrease) (mesenteric vascular bed [5]) | increase in mesenteric flow (mesenteric vascular bed [5]) | dilatation of other (non-mesenteric) vascular beds (mesenteric vascular bed [6]) | depression of the blood pressure (mesenteric vascular bed [6]) | fall in blood pressure (blood pressure [7]) | potency in stimulating the secretion of ACTH relative to amunine (teleost fish pituitaries) | potency of synthetic peptide versus extracted and purified peptide (isolated rat hind limb) | potency of synthetic peptide versus extracted and purified peptide [8] | activity relative to the activity of the respective extracted sucker UI peptide [9] [%] | also measured
1 | Ac-APPISIDLTFHLLRNMIEMARIENEREQAGLNRKYLDEV-NH2 [V] | very significant increasing of mesenteric blood flow and lowering of systemic blood pressure |  |  |  |  |  |  |  |  |  |  |  |  |  |  |  | stimulation of the secretion of ACTH and β-END-LI [1]: stimulates the secretion of ACTH and β-END-LI
2 | H-PPISIDLTFHLLRNMIEMARIENER-NH2 [VI, H-Pro-Pro-Ile-Ser-Ile-Asp-Leu-Thr-Phe-His-Leu-Leu-Arg-Asn-Met-Ile-Glu-Met- Ala-Arg-Ile-Glu-Asn-Glu-Arg-NH2] | significant mammalian vasodilatory-hypotensive activity |  |  |  |  |  |  |  |  |  |  |  |  |  |  |  | 
3 | H-NDDPPISIDLTFHLLRNMIEMARIENEREQAGLNRKYLDEV-NH2 [urotensin I] | substantially lower blood presssure for an extended time period | high potency | comparable to amunine (CRF) | stimulate ACTH and β-END-LI secretion in vivo | equipotent with the extracted and purified peptides | neither peptide dilates other vascular beds | modest but sustained depression of the blood pressure | about 10% | 50-150% | neither peptide dilates other vascular beds | modest but sustained depression of the blood pressure | more marked fall in blood pressure | several times more potent than amunine | equipotent with the extracted and purified peptides | equipotent with the extracted and purified peptides | 111±16 | potency to stimulate the secretion of ACTH and β-endorphin ([3]; listed as synthetic UI): stimulate ACTH and β-endorphin activies in vitro; stimulation of ACTH and β-END-LI secretion in vivo ([4]; listed as synthetic UI): stimulate ACTH and β-endorphin activies in vitro and in vivo
4 | H-PPISIDLTFHLLRNMIEMARIENEREQAGLNRKYLDEV-NH2 [urotensin I (4-41)] | substantially lower blood presssure for an extended time period | high potency | comparable to amunine (CRF) | stimulate ACTH and β-END-LI secretion in vivo | equipotent with the extracted and purified peptides | neither peptide dilates other vascular beds | modest but sustained depression of the blood pressure | about 10% | 50-150% | neither peptide dilates other vascular beds | modest but sustained depression of the blood pressure | more marked fall in blood pressure | several times more potent than amunine | equipotent with the extracted and purified peptides | equipotent with the extracted and purified peptides | 123±14 | potency to stimulate the secretion of ACTH and β-endorphin ([3]; listed as UI 4-41): stimulate ACTH and β-endorphin activies in vitro; stimulation of ACTH and β-END-LI secretion in vivo ([4]; listed as UI 4-41): stimulate ACTH and β-endorphin activies in vitro and in vivo
5 | CC[C@H](C)[C@H](NC(=O)[C@@H](NC(=O)[C@H](CC(=O)O)NC(=O)[C@H](CC(C)C)NC(=O)[C@H](CC(C)C)NC(=O)[C@H](CC(C)C)NC(=O)[C@H](CCCNC(=N)N)NC(=O)[C@H](CC(N)=O)NC(=O)[C@H](CC(N)=O)NC(=O)[C@H](C)NC(=O)[C@H](C)NC(=O)[C@H](CCC(N)=O)NC(=O)[C@H](CCC(N)=O)NC(=O)[C@H](CCCCN)NC(=O)[C@H](CCC(=O)O)NC(=O)[C@H](CCCCN)NC(=O)[C@H](CCC(=O)O)NC(=O)[C@H](CCC(N)=O)NC(=O)[C@H](CCCCN)NC(=O)[C@H](CCC(=O)O)NC(=O)[C@@H](NC(=O)[C@H](CCC(=O)O)NC(=O)[C@@H](NC(=O)[C@H](CCSC)NC(=O)[C@H](CCCCN)NC(=O)[C@H](CCCNC(=N)N)NC(=O)[C@H](CC(C)C)NC(=O)[C@H](CC(C)C)NC(=O)[C@H](CCC(=O)O)NC(=O)[C@H](CC(C)C)NC(=O)[C@H](CO)NC(=O)[C@H](CC(C)C)NC(=O)[C@H](CC(=O)O)NC(=O)[C@@H](NC(=O)[C@H](CO)NC(=O)[C@@H](NC(=O)[C@@H]1CCCN1C(=O)[C@@H]1CCCN1C(=O)CNC(=O)[C@@H]1CCC(=O)N1)[C@@H](C)CC)[C@@H](C)CC)[C@@H](C)CC)[C@@H](C)CC)[C@@H](C)O)C(N)=O [Sauvagine] |  |  |  |  |  |  |  |  |  |  |  |  |  |  |  |  | lowering blood pressure in mammals (blood pressure [10]): biological activity in lowering blood pressure in mammals; stimulating the secretion of ACTH and β-endorphin [11]: stimulating the secretion of ACTH and β-endorphin
